Laboratory results published in the supplement of paper PMC10307832.

Key:
Assay in all cases: relative viability (nuclei count vs DMSO), 5 days (fraction); higher = more cells survive
Carfilzomib + Pictilisib = compound: CC(C)C[C@H](NC(=O)[C@H](CCc1ccccc1)NC(=O)CN1CCOCC1)C(=O)N[C@@H](Cc1ccccc1)C(=O)N[C@@H](CC(C)C)C(=O)[C@@]1(C)CO1 [Carfilzomib] + CS(=O)(=O)N1CCN(Cc2cc3nc(-c4cccc5[nH]ncc45)nc(N4CCOCC4)c3s2)CC1 [Pictilisib] (partner 1 µM)
Method in brief: (§1)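 A single step with final 0.05% Triton X-100, 1% formaldehyde and 1 ug/ml Hoechst fixed the cells and stained nuclei 5 days after treatment. Lung cancer cell lines in 1536-well plates had been treated by pin tool the day after seeding with one drug alone or a fixed anchor-drug dose plus five library-drug doses (not always all listed) in √10 steps, and nuclei were counted on 4× images. Relative viability is the ratio of nuclei in treated wells to nuclei in vehicle wells, taken as the median of duplicate plates.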

Carfilzomib + Pemetrexed = compound: CC(C)C[C@H](NC(=O)[C@H](CCc1ccccc1)NC(=O)CN1CCOCC1)C(=O)N[C@@H](Cc1ccccc1)C(=O)N[C@@H](CC(C)C)C(=O)[C@@]1(C)CO1 [Carfilzomib] + Nc1nc2[nH]cc(CCc3ccc(C(=O)N[C@@H](CCC(=O)O)C(=O)O)cc3)c2c(=O)[nH]1 [Pemetrexed] (partner 0.2 µM)
Method in brief: as §1

Crizotinib + Luminespib = compound: C[C@@H](Oc1cc(-c2cnn(C3CCNCC3)c2)cnc1N)c1c(Cl)ccc(F)c1Cl [Crizotinib] + CCNC(=O)c1noc(-c2cc(C(C)C)c(O)cc2O)c1-c1ccc(CN2CCOCC2)cc1 [Luminespib] (partner 0.01 µM)
Method in brief: as §1

Olaparib + Foretinib = compound: O=C(c1cc(Cc2n[nH]c(=O)c3ccccc23)ccc1F)N1CCN(C(=O)C2CC2)CC1 [Olaparib] + COc1cc2c(Oc3ccc(NC(=O)C4(C(=O)Nc5ccc(F)cc5)CC4)cc3F)ccnc2cc1OCCCN1CCOCC1 [Foretinib] (partner 0.25 µM)
Method in brief: as §1

| Cell Line | relative viability (Carfilzomib + Pictilisib; first compound 0.001 µM) | relative viability (Carfilzomib + Pictilisib; first compound 0.003162 µM) | relative viability (Carfilzomib + Pictilisib; first compound 0.01 µM) | relative viability (Carfilzomib + Pictilisib; first compound 0.03162 µM) | relative viability (Carfilzomib + Pictilisib; first compound 0.1 µM) | relative viability (Carfilzomib + Pemetrexed; first compound 0.001 µM) | relative viability (Carfilzomib + Pemetrexed; first compound 0.003162 µM) | relative viability (Carfilzomib + Pemetrexed; first compound 0.01 µM) | relative viability (Carfilzomib + Pemetrexed; first compound 0.03162 µM) | relative viability (Carfilzomib + Pemetrexed; first compound 0.1 µM) | relative viability (Crizotinib + Luminespib; first compound 0.01 µM) | relative viability (Crizotinib + Luminespib; first compound 0.03162 µM) | relative viability (Crizotinib + Luminespib; first compound 0.1 µM) | relative viability (Crizotinib + Luminespib; first compound 0.3162 µM) | relative viability (Crizotinib + Luminespib; first compound 1 µM) | relative viability (Olaparib + Foretinib; first compound 0.08 µM) | relative viability (Olaparib + Foretinib; first compound 0.253 µM) | relative viability (Olaparib + Foretinib; first compound 2.53 µM) | relative viability (Olaparib + Foretinib; first compound 8 µM) |
| --- | --- | --- | --- | --- | --- | --- | --- | --- | --- | --- | --- | --- | --- | --- | --- | --- | --- | --- | --- |
| NCI-H520 | 0.263 | 0.246 | 0.222 | 0.176 | 0.186 | 0.664 | 0.712 | 0.568 | 0.169 | 0.131 | 0.212 | 0.258 | 0.243 | 0.258 | 0.231 | 0.848 | 0.761 | 0.624 | 0.359 |
| ChaGo-K-1 |  | 1.27 | 0.839 | 0.523 | 0.348 | 0.27 | 0.258 | 0.258 | 0.262 | 0.179 | 0.438 | 0.546 | 0.517 | 0.526 | 0.747 | 0.872 | 0.868 | 0.763 | 0.608 |
| NCI-H838 | 0.487 | 0.525 | 0.449 | 0.615 | 0.144 | 0.268 | 0.254 | 0.246 | 0.209 | 0.136 | 0.289 | 0.275 | 0.312 | 0.326 | 0.254 | 1.18 | 0.921 | 1.02 | 1.01 |
| NCI-H2126 | 0.557 | 0.477 | 0.512 | 0.555 | 0.446 | 0.612 | 0.702 | 0.678 | 0.617 | 0.424 | 0.717 | 0.886 |  | 0.861 | 0.916 | 1.06 | 1.15 | 1.36 | 1.18 |
| NCI-H2085 | 0.443 | 0.45 | 0.48 | 0.306 | 0.269 | 0.784 | 0.941 | 0.968 | 0.54 | 0.301 | 0.551 | 0.394 | 0.431 |  | 0.428 | 1.1 | 0.831 | 0.916 | 0.886 |
| LU99A | 0.349 | 0.341 | 0.331 | 0.238 | 0.151 | 0.191 | 0.163 | 0.18 | 0.214 | 0.188 | 0.234 | 0.22 | 0.254 | 0.23 | 0.246 | 0.826 | 0.646 | 0.608 | 0.537 |
| NCI-H1944 | 0.353 | 0.344 | 0.322 | 0.3 | 0.247 | 0.615 | 0.664 | 0.628 | 0.563 | 0.242 | 0.671 | 0.648 | 0.646 | 0.872 | 0.777 | 0.704 | 0.784 | 0.648 | 0.603 |
| NCI-H3122 | 0.585 | 0.615 | 0.6 | 0.602 | 0.34 | 0.194 | 0.198 | 0.207 | 0.189 | 0.154 | 0.119 | 0.0745 | 0.0793 | 0.0767 | 0.105 | 0.895 | 0.946 | 0.873 | 0.781 |
| LCLC-97TM1 | 0.214 | 0.223 | 0.122 | 0.114 | 0.116 | 0.164 | 0.176 | 0.173 | 0.167 | 0.0627 | 0.723 | 0.796 | 0.67 | 0.714 | 0.799 | 0.912 | 0.827 | 0.958 | 0.812 |
| LXF-289 | 0.753 | 0.776 | 0.644 | 0.0604 | 0.0625 | 0.947 | 0.933 | 0.909 | 0.108 | 0.125 | 0.664 | 0.726 | 0.662 | 0.445 | 0.609 | 1.06 | 0.91 | 1.07 | 0.983 |
| NCI-H2405 |  | 0.583 | 0.521 | 0.321 | 0.174 | 1.02 | 1.14 | 1.04 | 0.898 | 0.205 | 0.629 | 0.706 | 0.697 | 0.785 | 0.806 | 1.11 | 1.01 | 0.946 | 0.956 |
| LC-2-ad | 0.448 | 0.525 | 0.455 | 0.149 | 0.16 | 0.275 | 0.302 | 0.28 | 0.273 | 0.232 | 0.953 | 0.943 | 1.09 | 0.942 | 0.91 | 1.05 | 0.816 | 1.01 | 0.889 |
